Test results: patent publication US7598255B2 (Janssen Pharmaceutica NV, priority 2005, dated 2009)
Where a name gives a salt, the structure may show the parent alone.

Tests used:
rat 5-HT7a receptor = rat 5-HT7a receptor (Rattus norvegicus, UniProt P32305); test: Affinity for 5-HT7 receptor binding sites, radioligand binding with [3H]5-CT; conditions: membranes of HEK-293 cells with rat 5-HT7a, 1 nM [3H]5-CT
Experimental: The affinity of the compounds described in this invention for the 5-HT7 receptor binding site was evaluated by single competition radioligand binding assay. The assay was performed on membranes prepared from HEK-293 cells that had been subjected to stable transfection with the rat 5-HT7a receptor (GB: NM022938). Cells were scraped from the culture plates, suspended in Tris-HCl 50 mM pH 7.5 and collected through centrifugation (1000 rpm for 5 min). The cell pellets were homogenized (Polytron, 15 s, setting 5) in 50 mM Tris-HCl (pH 7.5), 5 mM EDTA. Following centrifugation (15,000 rpm for 25 min), membranes (135 μg protein/mL) were resuspended in the same buffer and incubated for 60 min at RT with 1 nM [^3H]5-CT in the presence of increasing concentration of test compounds. Nonspecific binding was defined in the presence of 10 μM 5-HT. Incubation was stopped by rapid filtration using the cell harvester (Packard). Radioactivity was counted in a TopCount-NXT (Packard). Experiments were conducted in triplicate.

[1] = target: T1, human recombinant 5-HT2C receptor (Homo sapiens, UniProt P28335); test: Affinity for 5HT2 receptor binding sites, h5-HT2C, [3H]mesulergine; conditions: CHO h5-HT2C membranes
T1 sequence (P28335 33-458): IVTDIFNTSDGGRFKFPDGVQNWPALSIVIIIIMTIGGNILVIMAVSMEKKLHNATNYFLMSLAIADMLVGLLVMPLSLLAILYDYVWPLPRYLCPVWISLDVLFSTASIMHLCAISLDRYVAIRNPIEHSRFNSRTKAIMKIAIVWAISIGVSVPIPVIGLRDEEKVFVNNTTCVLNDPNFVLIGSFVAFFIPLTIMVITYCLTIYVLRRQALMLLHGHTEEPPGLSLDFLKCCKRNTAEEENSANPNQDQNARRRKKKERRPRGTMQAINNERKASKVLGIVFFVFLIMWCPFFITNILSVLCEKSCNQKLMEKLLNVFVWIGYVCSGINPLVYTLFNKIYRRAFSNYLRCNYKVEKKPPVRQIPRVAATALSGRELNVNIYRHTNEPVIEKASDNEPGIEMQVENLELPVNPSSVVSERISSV

5-HT2A receptor = 5-HT2A receptor (Homo sapiens, UniProt P28223); test: Affinity for 5-HT2A receptor binding sites, radioligand binding with [3H]ketanserin; conditions: read-out: Ki 5-HT2A, rat cortex membranes (assay 2) or NIH3T3 h5-HT2A membranes (assay 3), table does not say which
Experimental: (§1) Sigmoidal inhibition curves were generated and fitted by nonlinear regression analysis (GraphPad Prism).
The affinity of the compounds for the rat 5-HT2A receptor was evaluated by competitive radioligand binding assay using [^3H]ketanserine as the radioligand. […] Brain tissue (rat cortex) was homogenized in 20 volumes per wet weight tissue of Tris-HCl buffer (50 mM, pH 7.4). The total membrane fraction was collected by centrifugation and washed by subsequent centrifugation runs (25 min at 25,000 g at 4° C.). Membranes were re-suspended in Tris-HCl buffer (50 mM, pH 7.4) containing 1 nM [^3H]ketanserin. Non-specific binding was estimated in the presence of 10 μM risperidone. The incubation was terminated by rapid filtration over Whatman GF/B filters pre-soaked in 0.1% polyethylenimine, and one washing step with 1 mL ice-cold Tris-HCl buffer, pH 7.4.

5-HT2B receptor = 5-HT2B receptor (Homo sapiens, UniProt P41595); test: Affinity for 5HT2 receptor binding sites, h5-HT2B, [3H]mesulergine; conditions: CHO h5-HT2B membranes
Chain of 5-HT2B receptor (P41595 whole entry): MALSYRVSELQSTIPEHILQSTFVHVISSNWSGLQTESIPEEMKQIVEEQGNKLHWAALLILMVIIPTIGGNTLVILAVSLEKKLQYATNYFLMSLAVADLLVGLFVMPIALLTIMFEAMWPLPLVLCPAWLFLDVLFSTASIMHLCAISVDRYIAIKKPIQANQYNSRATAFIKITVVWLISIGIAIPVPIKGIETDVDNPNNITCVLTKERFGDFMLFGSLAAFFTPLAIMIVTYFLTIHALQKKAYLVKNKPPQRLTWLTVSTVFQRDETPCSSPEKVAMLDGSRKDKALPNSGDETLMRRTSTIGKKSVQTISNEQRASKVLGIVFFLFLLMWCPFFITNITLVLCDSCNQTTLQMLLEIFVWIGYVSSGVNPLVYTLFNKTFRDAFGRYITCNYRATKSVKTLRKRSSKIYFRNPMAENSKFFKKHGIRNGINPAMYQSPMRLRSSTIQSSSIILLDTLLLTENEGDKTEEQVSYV
Experimental: as §1
Receptor binding was performed using the human recombinant 5-HT2A (GB: X57830), 5-HT2B (GB: Z36748) and 5-HT2C (GB: M81778) receptors. The affinity of the compounds for the 3 different human 5-HT2 receptor subtypes was evaluated by competitive radioligand binding assays using [^3H]ketanserin (h5-HT2A) or [^3H]mesulergine (h5-HT2B and h5-HT2C). The assays were performed on membranes prepared from NIH3T3 stably transfected with h5-HT2A or CHO stably transfected with h5-HT2B and h5-HT2C.

Chain of rat 5-HT7a receptor (P32305 whole entry): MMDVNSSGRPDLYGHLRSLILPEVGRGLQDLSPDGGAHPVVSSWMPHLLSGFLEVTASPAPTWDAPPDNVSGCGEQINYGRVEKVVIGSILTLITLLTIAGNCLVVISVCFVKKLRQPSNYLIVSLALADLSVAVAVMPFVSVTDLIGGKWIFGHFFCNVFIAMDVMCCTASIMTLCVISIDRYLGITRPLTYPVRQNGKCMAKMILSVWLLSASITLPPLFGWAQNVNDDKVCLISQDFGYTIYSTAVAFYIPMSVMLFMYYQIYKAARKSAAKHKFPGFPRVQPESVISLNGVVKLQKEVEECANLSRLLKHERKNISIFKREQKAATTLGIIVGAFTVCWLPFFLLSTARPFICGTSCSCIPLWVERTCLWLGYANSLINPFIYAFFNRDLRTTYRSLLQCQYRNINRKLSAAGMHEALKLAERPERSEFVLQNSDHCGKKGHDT

SMILES | Ki (rat 5-HT7a receptor) [nM] | Ki [1] [nM] | Ki (5-HT2A receptor) [nM] | Ki (5-HT2B receptor) [nM]
CC(C)(C)c1nc2c(c(-c3ccc(F)cc3)n1)CNCC2 [Example 1, 2-tert-Butyl-4-(4-fluoro-phenyl)-5,6,7,8-tetrahydro-pyrido[4,3-d]pyrimidine] | 540 | 90 | 4 | 70
Fc1ccc(-c2nc(Cc3ccccc3)nc3c2CNCC3)cc1 [Example 2, 2-Benzyl-4-(4-fluoro-phenyl)-5,6,7,8-tetrahydro-pyrido[4,3-d]pyrimidine] | > 10000 | 510 | 20 | 5000
CCC(C)c1nc2c(c(-c3ccc(C)cc3)n1)CNCC2 (stereo not shown) [Example 4, 2-sec-Butyl-4-p-tolyl-5,6,7,8-tetrahydro-pyrido[4,3-d]pyrimidine hydrochloride] | > 10000 | 200 | 20 | 250
Fc1ccc(-c2nc(C3CCC3)nc3c2CNCC3)cc1 [Example 5, 2-Cyclobutyl-4-(4-fluoro-phenyl)-5,6,7,8-tetrahydro-pyrido[4,3-d]pyrimidine hydrochloride] | > 10000 | 250 | 13 | 350
Cc1ccc(-c2nc(C3CCC3)nc3c2CNCC3)cc1 [Example 6, 2-Cyclobutyl-4-p-tolyl-5,6,7,8-tetrahydro-pyrido[4,3-d]pyrimidine] | > 10000 | 300 | 50 | 200
Fc1ccc(-c2nc(C3CC3)nc3c2CNCC3)cc1 [Example 7, 2-Cyclopropyl-4-(4-fluoro-phenyl)-5,6,7,8-tetrahydro-pyrido[4,3-d]pyrimidine] | > 10000 | 900 | 25 | 
FC(F)(F)c1ccc(-c2nc(Cc3ccccc3)nc3c2CNCC3)cc1 [Example 9, 2-Benzyl-4-(4-trifluoromethyl-phenyl)-5,6,7,8-tetrahydro-pyrido[4,3-d]pyrimidine] | 5000 | 7500 | 1350 | > 10000
Fc1ccc(-c2nc(Cc3ccccc3)nc3c2CNCC3)cc1F [Example 10, 2-Benzyl-4-(3,4-difluoro-phenyl)-5,6,7,8-tetrahydro-pyrido[4,3-d]pyrimidine] | > 10000 | 5000 | 200 | > 10000
c1ccc(Cc2nc3c(c(-c4ccccc4)n2)CNCC3)cc1 [Example 11, 2-Benzyl-4-phenyl-5,6,7,8-tetrahydro-pyrido[4,3-d]pyrimidine] | > 10000 | 2000 | 100 | > 10000
Fc1cccc(-c2nc(Cc3ccccc3)nc3c2CNCC3)c1 [Example 12, 2-Benzyl-4-(3-fluoro-phenyl)-5,6,7,8-tetrahydro-pyrido[4,3-d]pyrimidine] | > 10000 | 5000 | 300 | > 10000
CN1CCc2nc(Cc3ccc(F)cc3)nc(-c3ccc(F)cc3)c2C1 [Example 14, 2-(4-Fluoro-benzyl)-4-(4-fluoro-phenyl)-6-methyl-5,6,7,8-tetrahydro-pyrido[4,3-d]pyrimidine] | > 10000 | 4000 | 30 | 4000
CN1CCc2nc(Cc3ccc(F)cc3)nc(-c3ccc(C#N)cc3)c2C1 [Example 15, 4-[2-(4-Fluoro-benzyl)-6-methyl-5,6,7,8-tetrahydro-pyrido[4,3-d]pyrimidin-4-yl]-benzonitrile] | > 10000 | > 10000 | 1000 | > 10000
N#Cc1ccc(-c2nc(Cc3ccc(F)cc3)nc3c2CNCC3)cc1 [Example 16, 4-[2-(4-Fluoro-benzyl)-5,6,7,8-tetrahydro-pyrido[4,3-d]pyrimidin-4-yl]-benzonitrile] | > 10000 | > 10000 | 2000 | > 10000
COc1ccc(-c2nc(C3CCCC3)nc3c2CNCC3)cc1 [Example 19, 2-Cyclopentyl-4-(4-methoxy-phenyl)-5,6,7,8-tetrahydro-pyrido[4,3-d]pyrimidine] | > 10000 | 200 | 100 | 140
N#Cc1ccc(-c2nc(C3CCCC3)nc3c2CNCC3)cc1 [Example 20, 4-(2-Cyclopentyl-5,6,7,8-tetrahydro-pyrido[4,3-d]pyrimidin-4-yl)-benzonitrile] | > 10000 | > 10000 | 700 | 1200
CC(C)c1nc2c(c(-c3ccc(F)cc3)n1)CN(C)CC2 [Example 22, 4-(4-Fluoro-phenyl)-2-isopropyl-6-methyl-5,6,7,8-tetrahydro-pyrido[4,3-d]pyrimidine] | > 10000 | 1300 | 32 | 500
CC(C)c1nc2c(c(-c3ccc(Cl)c(Cl)c3)n1)CNCC2 [Example 23, 4-(3,4-Dichloro-phenyl)-2-isopropyl-5,6,7,8-tetrahydro-pyrido[4,3-d]pyrimidine hydrochloride] | > 10000 | > 10000 | 500 | > 10000
CC(C)c1nc2c(c(-c3ccc(F)c(F)c3)n1)CNCC2 [Example 24, 4-(3,4-Difluoro-phenyl)-2-isopropyl-5,6,7,8-tetrahydro-pyrido[4,3-d]pyrimidine hydrochloride] | > 10000 | > 10000 | 240 | > 10000
CC(C)c1nc2c(c(-c3cccc(F)c3)n1)CNCC2 [Example 25, 4-(3-Fluoro-phenyl)-2-isopropyl-5,6,7,8-tetrahydro-pyrido[4,3-d]pyrimidine] | > 10000 | > 10000 | 300 | > 10000
CC(C)c1nc2c(c(-c3ccccc3F)n1)CNCC2 [Example 26, 4-(2-Fluoro-phenyl)-2-isopropyl-5,6,7,8-tetrahydro-pyrido[4,3-d]pyrimidine] | > 10000 | > 10000 | 300 | > 10000
CC(C)c1nc2c(c(-c3ccc(F)cc3F)n1)CNCC2 [Example 27, 4-(2,4-Difluoro-phenyl)-2-isopropyl-5,6,7,8-tetrahydro-pyrido[4,3-d]pyrimidine] | > 10000 | > 10000 | 60 | > 10000
Cc1ccc(-c2nc(C(C)C)nc3c2CNCC3)cc1 [Example 28, 2-Isopropyl-4-p-tolyl-5,6,7,8-tetrahydro-pyrido[4,3-d]pyrimidine] | > 10000 | 3000 | 100 | 400
COc1ccc(-c2nc(C(C)C)nc3c2CNCC3)cc1 [Example 30, 2-Isopropyl-4-(4-methoxy-phenyl)-5,6,7,8-tetrahydro-pyrido[4,3-d]pyrimidine] | > 10000 | 2500 | 800 | 1000
CC(C)Cc1nc2c(c(-c3ccc(F)cc3)n1)CNCC2 [Example 37, 4-(4-Fluoro-phenyl)-2-isobutyl-5,6,7,8-tetrahydro-pyrido[4,3-d]pyrimidine] | > 10000 | 1000 |  | 400
CNCCc1cc(-c2ccc(F)cc2)nc(C(C)(C)C)n1 [Example 166, {2-[2-tert-Butyl-6-(4-fluoro-phenyl)-pyrimidin-4-yl]-ethyl}-methyl-amine] |  | 170 | 11 | 18
